The values that follow come from ChEMBL document CHEMBL1201862, “PubChem BioAssay data set” (2004).

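96-well plates; 48 h exposure; 5 concentrations. Endpoints by linear interpolation between flanking doses. Not reached: highest tested concentration assigned. GI50 is the concentration that inhibits growth by half.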 Active and inactive are the calls of the source. No stated cut-off is given here; in the data, active = GI50 up to about 1.1 µM and inactive = higher. A value given as a limit tells only on which side of the number the result lay.

Some test systems named below: A549; ACHN; CAKI-1; DU-145; HL-60; HOP-62; KM12; LOX IMVI; MDA-MB-231; Malme-3M; NCI/ADR-RES; PC-3; RXF 393; SF-295; SK-MEL-28; SK-MEL-5; SR; TK-10; U-251; NCI-H226.
Assay in all cases: NCI tumour cell line growth inhibition, 48 h

Consider `Cc1cc2c(cc1C)[n+]([O-])c(C(F)(F)F)c(C(=O)c1ccccc1)[n+]2[O-]`, for which the GI50 in the test on A549 was 1.42 µM (inactive); in the test with ACHN it was 2.39 µM (inactive); in the test on CAKI-1 it was 0.76 µM (active); with DU-145, 1.62 µM (inactive); in the test with HL-60, 1.69 µM (inactive); in the test with HOP-62, 0.299 µM (active). Besides, the GI50 in the test on KM12 was 1.85 µM (inactive); in the test with LOX IMVI, 2.17 µM (inactive); in the test with MDA-MB-231, 2.3 µM (inactive); in the test with Malme-3M, 2.39 µM (inactive); in the test on NCI/ADR-RES, 2.49 µM (inactive); in the test with PC-3, 2.09 µM (inactive). Further, the GI50 is 3.13 µM (inactive) in the test on RXF 393; 2.4 µM (inactive) in the test with SF-295; 4.52 µM (inactive) with SK-MEL-28; 1.73 µM (inactive) in the test with SK-MEL-5; 0.527 µM (active) in the test on SR; 3.3 µM (inactive) in the test on TK-10. Further, in the test on U-251, the GI50 is 2.67 µM (inactive).
As to `CC1=Cc2ccc(C)cc2C(=O)C1=O`, the GI50 is 23.7 µM (inactive) with A549; 1.95 µM (inactive) with ACHN; 5.07 µM (inactive) in the test with CAKI-1; 16.8 µM (inactive) in the test on DU-145; 1 µM (active) with HL-60; 21.3 µM (inactive) in the test with HOP-62. Further, the GI50 was 17.6 µM (inactive) in the test with KM12; 4.66 µM (inactive) in the test on LOX IMVI; 20.6 µM (inactive) with MDA-MB-231; 36.1 µM (inactive) in the test with NCI-H226; 18.8 µM (inactive) with NCI/ADR-RES; 15.8 µM (inactive) in the test with PC-3. Further, the GI50 with RXF 393 was 1.83 µM (inactive); in the test on SF-295, 18.5 µM (inactive); in the test with SK-MEL-28 it was 21.6 µM (inactive); in the test with SK-MEL-5, 20.4 µM (inactive); in the test on SR, 1.58 µM (inactive); in the test on TK-10, 1.83 µM (inactive). The GI50 in the test with U-251 was 20.4 µM (inactive).
On to `COCN1C(=O)[C@@H]2CCCN2C(=O)c2ccc([N+](=O)[O-])cc21`, for which the GI50 with A549 is > 100 µM (inactive); in the test on ACHN, > 100 µM (inactive); in the test on CAKI-1 it was > 100 µM (inactive); in the test on DU-145, > 100 µM (inactive); in the test with HL-60, 87.5 µM (inactive); in the test with HOP-62, > 100 µM (inactive). Moreover, the GI50 with KM12, with LOX IMVI, with MDA-MB-231, with NCI-H226, in the test with NCI/ADR-RES and with PC-3 was > 100 µM (inactive) in each case. Also, the GI50 with RXF 393 was > 100 µM (inactive); in the test with SF-295, > 100 µM (inactive); with SK-MEL-28, > 100 µM (inactive); with SK-MEL-5, > 100 µM (inactive); with SR, 48.4 µM (inactive); in the test on TK-10, > 100 µM (inactive). In the test with U-251, the GI50 is > 100 µM (inactive).
In the case of `COc1ccc(C(OCC2OC(n3ccc(Oc4c(F)c(F)c(F)c(F)c4F)nc3=O)CC2OP(OCCC#N)N(C(C)C)C(C)C)(c2ccccc2)c2ccc(OC)cc2)cc1` (stereo not drawn), the GI50 with A549, in the test with ACHN, with CAKI-1, in the test on DU-145, with HL-60 and in the test with HOP-62 was > 100 µM (inactive) each time. Moreover, the GI50 in the test with KM12, with LOX IMVI, in the test on MDA-MB-231, in the test on NCI-H226, in the test on NCI/ADR-RES and with PC-3 was > 100 µM (inactive) each time. In addition, the GI50 in the test with RXF 393 was > 100 µM (inactive); in the test on SF-295, > 100 µM (inactive); in the test on SK-MEL-28, > 100 µM (inactive); in the test with SK-MEL-5, 68.2 µM (inactive); in the test on SR it was > 100 µM (inactive); with TK-10 it was > 100 µM (inactive). Further, the GI50 with U-251 is > 100 µM (inactive).
In the case of `CC1(C)CC(=O)c2c(nc3c(ccc4ccccc43)c2-c2ccc(NC(=O)CCC(=O)Nc3ccc(-c4c5c(nc6c4ccc4ccccc46)CC(C)(C)CC5=O)cc3)cc2)C1`, the GI50 in the test with A549, in the test on ACHN, with CAKI-1, in the test on DU-145, in the test with HL-60 and in the test with HOP-62 was > 100 µM (inactive) throughout. The GI50 in the test with KM12, in the test on LOX IMVI, in the test on MDA-MB-231, in the test with NCI-H226, in the test with NCI/ADR-RES and in the test on PC-3 was > 100 µM (inactive) throughout. Also, the GI50 in the test with RXF 393, in the test with SF-295, in the test with SK-MEL-28, in the test with SK-MEL-5, in the test with SR and with TK-10 was > 100 µM (inactive) throughout. Also, in the test with U-251, the GI50 is > 100 µM (inactive).
As for `CC/C=C\C/C=C\C/C=C\CCCCCCCC(=O)OC(COC(=O)CCCCCCCCCCCCCCCCC)COC1OC(CO)C(O)C(O)C1O` (stereo not drawn), the GI50 with A549, in the test on ACHN, in the test on CAKI-1, in the test on DU-145, with HL-60 and in the test on HOP-62 was > 25 µM (inactive) throughout. Besides, the GI50 with KM12 was > 25 µM (inactive); with LOX IMVI it was > 25 µM (inactive); in the test with MDA-MB-231, > 25 µM (inactive); in the test with NCI-H226 it was > 25 µM (inactive); in the test on NCI/ADR-RES, 23.6 µM (inactive); with PC-3, 22.8 µM (inactive). The GI50 in the test with RXF 393, with SF-295, in the test with SK-MEL-28, in the test with SK-MEL-5, with SR and with TK-10 was > 25 µM (inactive) in each case. Moreover, in the test with U-251, the GI50 is > 25 µM (inactive).
For the compound `O=c1[nH]c2ccc(O)cc2o1`, the GI50 in the test on A549, in the test with ACHN, with CAKI-1, in the test with DU-145, in the test with HL-60 and with HOP-62 was > 100 µM (inactive) throughout. For the same compound, the GI50 is > 100 µM (inactive) in the test with KM12; > 100 µM (inactive) with MDA-MB-231; 0.601 µM (active) in the test on Malme-3M; > 100 µM (inactive) in the test with NCI-H226; > 100 µM (inactive) in the test on NCI/ADR-RES; > 100 µM (inactive) in the test on PC-3. Besides, the GI50 is 2.49 µM (inactive) in the test on RXF 393; > 100 µM (inactive) in the test on SF-295; > 100 µM (inactive) with SK-MEL-28; > 100 µM (inactive) in the test on SK-MEL-5; > 100 µM (inactive) with SR; > 100 µM (inactive) with TK-10. In the test on U-251, the GI50 was > 100 µM (inactive).
